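Tested at 5 concentrations; 48 h exposure; 96-well plates; endpoints linearly interpolated, else capped at highest concentration. GI50: concentration for 50% inhibition of growth.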 Calls of active or inactive are those of the source. Rule as the data show it: active = GI50 up to about 1.1 µM and inactive = higher.
Key:
Test in all cases: DTP human tumour cell line panel, 48 h
OVCAR-5 = tested on: OVCAR-5
TK-10 = tested on: TK-10
NCI/ADR-RES = tested on: NCI/ADR-RES
SW-620 = tested on: SW-620
SF-295 = tested on: SF-295
SK-MEL-2 = tested on: SK-MEL-2
HT-29 = tested on: HT-29
RXF 393 = tested on: RXF 393
HOP-92 = tested on: HOP-92
EKVX = tested on: EKVX
Malme-3M = tested on: Malme-3M
U-251 = tested on: U-251
NCI-H460 = tested on: NCI-H460
SK-OV-3 = tested on: SK-OV-3
K562 = tested on: K562
ACHN = tested on: ACHN
SF-268 = tested on: SF-268
UACC-62 = tested on: UACC-62
PC-3 = tested on: PC-3

Measured: GI50

NC(Cc1cccnn1)C(=O)O (configuration not stated)
inactive: OVCAR-5 > 100 µM | TK-10 > 100 µM | NCI/ADR-RES > 100 µM | SW-620 > 100 µM | SF-295 > 100 µM | SK-MEL-2 > 100 µM | HT-29 > 100 µM | RXF 393 > 100 µM | HOP-92 > 100 µM | EKVX > 100 µM | Malme-3M > 100 µM | U-251 > 100 µM | NCI-H460 > 100 µM | SK-OV-3 > 100 µM | K562 > 100 µM | ACHN > 100 µM | SF-268 > 100 µM | UACC-62 > 100 µM | PC-3 > 100 µM

COc1ccc(C2(CC(C)O)SCCCS2)cc1 (configuration not stated)
inactive: OVCAR-5 > 100 µM | TK-10 > 100 µM | NCI/ADR-RES > 100 µM | SW-620 > 100 µM | SF-295 > 100 µM | SK-MEL-2 > 100 µM | HT-29 > 100 µM | RXF 393 > 100 µM | HOP-92 > 100 µM | EKVX > 100 µM | Malme-3M > 100 µM | U-251 > 100 µM | NCI-H460 > 100 µM | SK-OV-3 > 100 µM | K562 > 100 µM | ACHN > 100 µM | SF-268 > 100 µM | UACC-62 > 100 µM | PC-3 92.7 µM

Cn1c(=O)c2c(no[n+]2[O-])n(C)c1=O
inactive: OVCAR-5 > 100 µM | TK-10 18.9 µM | NCI/ADR-RES 22.9 µM | SW-620 25.4 µM | SF-295 52.4 µM | SK-MEL-2 45 µM | HT-29 31.2 µM | RXF 393 27.7 µM | HOP-92 19.1 µM | EKVX 28.4 µM | Malme-3M 18.5 µM | U-251 22.6 µM | NCI-H460 > 100 µM | SK-OV-3 53.5 µM | K562 > 100 µM | ACHN > 100 µM | SF-268 25.6 µM | UACC-62 19.5 µM | PC-3 > 100 µM

NC1(c2cc3ccccc3s2)CCCC1
inactive: OVCAR-5 > 100 µM | TK-10 34.1 µM | NCI/ADR-RES 78.9 µM | SW-620 49.2 µM | SF-295 71.3 µM | SK-MEL-2 58.9 µM | HT-29 32.9 µM | RXF 393 43.8 µM | HOP-92 51.6 µM | EKVX > 100 µM | Malme-3M 36.9 µM | U-251 48 µM | NCI-H460 33.6 µM | SK-OV-3 > 100 µM | K562 25.2 µM | ACHN 86.5 µM | SF-268 > 100 µM | UACC-62 50.4 µM | PC-3 32 µM

O=C1C(Cl)C(c2cc3cc(Br)ccc3nc2Cl)N1c1c(Cl)cccc1Cl (configuration not stated)
inactive: OVCAR-5 > 25 µM | TK-10 > 25 µM | NCI/ADR-RES 12.3 µM | SW-620 11.6 µM | SF-295 > 25 µM | SK-MEL-2 > 25 µM | HT-29 > 25 µM | RXF 393 9.91 µM | HOP-92 9.79 µM | EKVX 6.32 µM | Malme-3M > 25 µM | NCI-H460 > 25 µM | SK-OV-3 > 25 µM | K562 7.01 µM | ACHN 15.9 µM | SF-268 11.7 µM | UACC-62 17.4 µM | PC-3 20 µM

Nc1nc(Cl)c2ncn(Cc3ccc(CCl)cc3)c2n1
inactive: OVCAR-5 3.29 µM | TK-10 16.6 µM | NCI/ADR-RES 3.33 µM | SW-620 3.37 µM | SF-295 10.8 µM | SK-MEL-2 11.5 µM | HT-29 9.73 µM | RXF 393 1.3 µM | HOP-92 1.64 µM | EKVX 2.58 µM | Malme-3M 11.3 µM | U-251 3.56 µM | NCI-H460 4.25 µM | SK-OV-3 15.1 µM | K562 3.61 µM | ACHN 9.62 µM | SF-268 1.88 µM | UACC-62 2.23 µM | PC-3 7.45 µM

N#Cc1c(C#N)c(SSc2c(C#N)c(C#N)c(N)n2-c2ccc(F)cc2)n(-c2ccc(F)cc2)c1N
inactive: OVCAR-5 17.1 µM | TK-10 3.9 µM | NCI/ADR-RES 24.3 µM | SW-620 2.25 µM | SF-295 17.9 µM | SK-MEL-2 22.4 µM | HT-29 20.5 µM | RXF 393 3.01 µM | HOP-92 2.96 µM | EKVX 2.2 µM | Malme-3M 1.87 µM | U-251 20.2 µM | NCI-H460 20.2 µM | SK-OV-3 17.5 µM | K562 1.76 µM | ACHN 3.66 µM | SF-268 17.5 µM | UACC-62 16.9 µM | PC-3 17.9 µM

CSc1ccc(-c2cc(-c3nc4ccccc4[nH]3)nc3[nH]c(-c4nc5ccccc5[nH]4)cc(=O)c23)cc1
inactive: OVCAR-5 > 100 µM | TK-10 > 100 µM | NCI/ADR-RES > 100 µM | SF-295 86.1 µM | SK-MEL-2 > 100 µM | HT-29 68.5 µM | RXF 393 52.5 µM | HOP-92 > 100 µM | EKVX 27.1 µM | Malme-3M > 100 µM | U-251 93.8 µM | NCI-H460 52.1 µM | SK-OV-3 > 100 µM | K562 42 µM | ACHN 29.4 µM | SF-268 49.2 µM | UACC-62 92.5 µM | PC-3 > 100 µM

Cc1cc(C)c2c(n1)S(=O)(=O)N(CCCN1CCN(c3cccc(C(F)(F)F)c3)CC1)C(C(=O)c1ccc(Cl)cc1)=C2O
inactive: OVCAR-5 4.71 µM | TK-10 3.01 µM | NCI/ADR-RES 2.12 µM | SW-620 3.69 µM | SF-295 3.29 µM | SK-MEL-2 3.91 µM | HT-29 4.03 µM | RXF 393 4.34 µM | HOP-92 2.5 µM | EKVX 3.03 µM | Malme-3M 3.27 µM | U-251 2.65 µM | NCI-H460 1.79 µM | SK-OV-3 5.81 µM | K562 2.2 µM | ACHN 3.48 µM | SF-268 3.69 µM | UACC-62 4.74 µM | PC-3 2.88 µM

O=S(=O)(O)CCSSCCS(=O)(=O)O
inactive: OVCAR-5 > 1000 µM | TK-10 > 1000 µM | NCI/ADR-RES > 1000 µM | SW-620 > 1000 µM | SF-295 > 1000 µM | SK-MEL-2 > 1000 µM | HT-29 > 1000 µM | RXF 393 > 1000 µM | HOP-92 > 1000 µM | EKVX > 1000 µM | Malme-3M > 1000 µM | U-251 > 1000 µM | NCI-H460 > 1000 µM | SK-OV-3 > 1000 µM | K562 > 1000 µM | ACHN > 1000 µM | SF-268 > 1000 µM | UACC-62 > 1000 µM | PC-3 > 1000 µM

CC(=O)O[C@@H]1C(C2CCCCC2)C=[N+]([O-])O[C@@H]1OC1CCCC1(c1ccccc1)c1ccccc1 (some centres not stated)
inactive: OVCAR-5 15.8 µM | TK-10 14.5 µM | NCI/ADR-RES 10.2 µM | SW-620 2.04 µM | SF-295 14.4 µM | SK-MEL-2 9.91 µM | HT-29 2.09 µM | RXF 393 2.58 µM | HOP-92 10.1 µM | EKVX 15.7 µM | Malme-3M 2.99 µM | U-251 12.5 µM | NCI-H460 13.3 µM | SK-OV-3 15.7 µM | K562 3.61 µM | ACHN 2.21 µM | SF-268 7.4 µM | UACC-62 5.81 µM | PC-3 9.59 µM
